Like-named read-outs stand apart in the source and are kept apart here. Blank lines part the entries; values can stand above or below the compound they belong to.
What was measured:
[1] = DPPH free radical scavenging; details: mean ± SD (n = 3)
Experimental: The effect of target compounds and vitamin C to scavenge the DPPH free radical was evaluated with the method described by Villano et al.[43] with slight modifications.
Two millilitres of different concentrations of the sample solution was added to 2.0 ml of DPPH solution (0.04 mg/mL), shaken and allowed to react at room temperature for 30 min. The absorbance value was measured at 517 nm with an ultraviolet-visible spectrophotometer. The blank reference cuvette contained absolute ethanol. All measurements were performed in triplicate. IC50 values were calculated. The percentage of DPPH radical scavenging rate of the target compound is calculated as follows: DPPH free radical scavenging effect (%)=[A0−(A1−A2)]/A0×100% where A0 is the absorbance of 2.0 ml DPPH solution +2.0 ml absolute ethanol; A1 is the absorbance of 2.0 ml DPPH solution +2.0 ml 3-arylcoumarins solution or standard; A2 is the absorbance of 2.0 ml 3-arylcoumarins solution or standard +2.0 ml absolute ethanol.

[2] = hydroxyl radical scavenging; details: mean ± SD (n = 3), read-out: OH IC50 Value
Experimental: The ability of the target compounds and vitamin C to scavenge the hydroxyl radical was evaluated with method described by Ismaili et al.[29] with slight modifications. In test tube, 1.0 ml H2O2 solution (0.03%), 1.0 ml FeSO4 solution (2 mmol.L^−1), 1.0 ml salicylic acid solution (10 mmol.L^−1) and 1.0 ml of 3-arylcoumarins and standard water solution with different concentration (0.4–2.0 mg/mL) were mixed. Finally, 1.0 ml H2O2 solution (0.03%) was added to this mixture to start the reaction. Solutions were kept at 37 °C. After 30 min, the absorbance was measured at 510 nm against the reagent blank, where the distilled water was substituted for the H2O2 solution. The percentage of OH scavenging by target compounds and vitamin C was calculated the following equation: OH scavenging effect (%)=[A0−(A1−A2)]/A0×100% where A0 is the absorbance of 1.0 ml distilled water +1.0 ml H2O2 + 1.0 ml FeSO4 + 1.0 ml salicylic acid +1.0 ml H2O2; A1 is the absorbance of 1.0 ml 3-arylcoumarins or standard +1.0 ml H2O2 + 1.0 ml FeSO4 + 1.0 ml salicylic acid +1.0 ml H2O2; A2 is the absorbance of 1.0 ml 3-arylcoumarins or standard +1.0 ml H2O2 + 1.0 ml FeSO4 + 1.0 ml absolute absolute ethanol +1.0 ml H2O2.

AGEs formation = assay: In vitro inhibitory activity of AGEs formation (bovine serum albumin/glucose); type: biochemical; details: mean ± SD (n = 3)
Experimental: To prepare the AGEs reaction solution, 10 mg/mL of bovine serum albumin in 50 mM PBS (pH 7.4) was added to 0.2 M glucose, and 0.02% sodium azide was added to prevent bacterial growth. The reaction mixture (3.0 ml) was then mixed with various concentrations (0.5–1000 μg/mL) of the target compounds (1.0 ml) dissolved in DMSO. After incubating at 37 °C for 14 d, the fluorescence intensity of AGE was determined by a fluorospectrophotometer (PE, USA) with excitation and emission wavelengths at 350 nm and 420 nm, respectively. All experiments were run in triplicate. Aminoguanidine hydrochloride was used as a reference compound. The inhibition rate of AGEs formation and the IC50 value of each sample were calculated according to the formula. Inhibition rate %={[(AC−AB)−(AS−ASB)]/(AC−AB)}×100% where AC is the absorbance of control group(1.0 ml glucose +1.0 ml bovine serum albumin +1.0 ml sodium azide +1.0 ml DMSO); AB is the absorbance of blank group(1.0 ml PBS +1.0 ml bovine serum albumin +1.0 ml sodium azide +1.0 ml DMSO); AS is the absorbance of sample group (1.0 ml glucose +1.0 ml bovine serum albumin +1.0 ml sodium azide +1.0 ml target compound solution or Aminoguanidine hydrochloride solution); ASB is the absorbance of sample blank group (1.0 ml PBS +1.0 ml bovine serum albumin +1.0 ml sodium azide +1.0 ml target compound solution or Aminoguanidine hydrochloride solution).

α-Glucosidase = target: T1, α-Glucosidase (Saccharomyces cerevisiae, UniProt P53341); assay: biochemical; type: biochemical
T1 construct: purchased Sigma Aldrich G0660-750UN
Experimental: α-Glucosidase (G0660-750UN, Sigma Aldrich) and 4-Nitrophenyl α-D-glucopyranoside (PNPG, Macklin) were dissolved in phosphate buffer (pH 6.8, 100 mM), and the test compounds were dissolved in DMSO solution. The experiment was divided into blank group, control group, sample blank group, and sample group. The reagents were loaded in 96-well plates at the dose of the table (Table 8). The solution was bathed in 37 °C water for 10 min, and then enzyme solution was added. After reaction at 37 °C for 20 min, 70 μL Na2CO3 solution ([…]) was added to stop the reaction. All experiments were run in triplicate. […] Since PNPG can produce glucose and p-Nitrophenol (PNP) under the action of α-glucosidase, PNP has the greatest absorption at 405 nm. The absorbance was determined by the microplate reader, and the inhibition rate of α-glucosidase and the IC50 value of each sample were calculated according to the formula. Inhibition rate %={[(AC−AB)−(AS−ASB)]/(AC−AB)}×100% where AC is the absorbance of control group; AB is the absorbance of blank group; AS is the absorbance of sample group; ASB is the absorbance of sample blank group.

normal mice = assay: Acute hypoglycemic assay in normal mice; type: in vivo; details: 10 mg/kg of bw per os
Experimental: (§1) STZ-induced diabetic mice and normal mice were placed in single cages with wire-net floors and deprived of food for 12 h before experimentation but allowed free access to tap water throughout. The compounds (at the doses of 10, 30, and 100 mg/kg of bw) were suspended in 0.05% Tween-80 in saline solution. Glibenclamide (10 mg/kg of bw) was suspended in the same vehicle. The target compounds were freshly prepared immediately before experimentation and administered by the intragastrical route at the doses of 10 ml/kg of bw. Control mice received only the vehicle (0.05% Tween-80 in saline solution) by the same route. Blood glucose levels were measured at 0, 1.5, 3, 5, 7, and 9 h after drugs administration.

STZ-diabetic mice = assay: Acute hypoglycemic assay in STZ-diabetic mice; type: in vivo; details: for Blood glucose concentration / % Variation of glycemia: STZ-diabetics mice, 10 mg/kg of bw per os
Experimental: Type II diabetes mellitus was induced in mice by a single intraperitoneal injection of freshly prepared STZ (Sigma Aldrich) dissolved in 0.1M citrate buffer, pH 4.5, in a volume of 110 mg/kg of bw. After 7 days of STZ administration, blood glucose levels of each mouse were determined. Mice with blood glucose levels higher than 11 mM were considered diabetic and were included in the study.
as §1

[3] = mean ± SD (n = 3), read-out: α-Glucosidase inhibitory activity IC50 Value

T1 sequence (P53341 whole entry): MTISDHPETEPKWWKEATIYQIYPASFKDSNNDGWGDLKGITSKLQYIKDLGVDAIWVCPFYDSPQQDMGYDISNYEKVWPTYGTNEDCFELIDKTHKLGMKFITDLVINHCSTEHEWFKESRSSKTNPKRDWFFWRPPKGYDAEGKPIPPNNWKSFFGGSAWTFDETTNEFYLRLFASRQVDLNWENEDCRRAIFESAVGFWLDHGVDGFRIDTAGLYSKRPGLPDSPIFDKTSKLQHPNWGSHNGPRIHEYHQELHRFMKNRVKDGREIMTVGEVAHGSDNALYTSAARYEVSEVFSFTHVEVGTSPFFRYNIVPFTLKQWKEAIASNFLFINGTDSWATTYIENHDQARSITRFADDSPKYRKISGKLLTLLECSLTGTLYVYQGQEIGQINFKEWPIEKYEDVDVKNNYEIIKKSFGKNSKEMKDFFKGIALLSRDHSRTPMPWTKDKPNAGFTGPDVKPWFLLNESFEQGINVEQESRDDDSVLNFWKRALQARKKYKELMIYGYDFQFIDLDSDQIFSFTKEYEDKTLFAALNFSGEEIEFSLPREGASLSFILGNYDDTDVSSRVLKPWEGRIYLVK

- IC50 [1]: > 1000 µM
- IC50 [2]: > 1000 µM
- IC50 (AGEs formation): > 1000 µM
- IC50 (α-Glucosidase; [3]): 60.88 ± 0.55 µM
SMILES: O=c1oc2ccccc2cc1-c1ccc(O)cc1 [Compound 6, 3-(4-Hydroxyphenyl)-coumarin]

SMILES: O=c1oc2ccccc2cc1-c1ccc(F)cc1 [Compound 7, 3-(4-Fluorophenyl)-coumarin]
- IC50 [1]: > 1000 µM
- melting point: 196.7 to 197.7 °C
- IC50 [2]: > 1000 µM
- IC50 (AGEs formation): > 1000 µM
- IC50 (α-Glucosidase): > 1000 µM

- IC50 [1]: 60.2 ± 1.27 µM
- IC50 [2]: > 1000 µM
- IC50 (AGEs formation): > 1000 µM
- IC50 (α-Glucosidase; [3]): 118 ± 41.5 µM
SMILES: Cc1ccc(-c2cc3ccc(O)cc3oc2=O)cc1 [Compound 9, 7-Hydroxy-3-(4-methylphenyl)-coumarin]

- IC50 [1]: 756 ± 8.31 µM
- IC50 [2]: > 1000 µM
- IC50 (α-Glucosidase; [3]): 19.9 ± 3.39 µM
SMILES: O=c1oc2cc(O)ccc2cc1-c1ccc(O)cc1 [Compound 12, 7-Hydroxy-3-(4-hydroxyphenyl)-coumarin]

SMILES: O=c1oc2c(O)cccc2cc1-c1ccc(O)cc1 [Compound 14, 8-Hydroxy-3-(4-hydroxyphenyl)-coumarin]
- IC50 [1]: 167 ± 2.01 µM
- IC50 [2]: > 1000 µM
- IC50 (AGEs formation): 45.2 ± 5.28 µM
- IC50 (α-Glucosidase): 213 ± 40.3 µM

- IC50 [1]: > 1000 µM
- IC50 [2]: > 1000 µM
- IC50 (AGEs formation): 20.6 ± 0.39 µM
- IC50 (α-Glucosidase; [3]): 86.9 ± 1.17 µM
SMILES: O=c1oc2cc(O)ccc2cc1-c1ccc(F)cc1 [Compound 18, 7-Hydroxy-3-(4-fluorophenyl)-coumarin]

SMILES: COc1ccc(-c2cc3cccc(O)c3oc2=O)cc1 [Compound 22, 8-Hydroxy-3-(4-methoxyphenyl)-coumarin]
- IC50 [1]: 15.63 ± 0.11 µM
- IC50 [2]: > 1000 µM
- IC50 (AGEs formation): 23.1 ± 0.82 µM
- IC50 (α-Glucosidase): > 1000 µM

- IC50 [1]: 53.9 ± 1.83 µM
- IC50 [2]: > 1000 µM
- IC50 (AGEs formation): > 1000 µM
- IC50 (α-Glucosidase; [3]): 27.42 ± 0.11 µM
SMILES: COc1ccc(-c2cc3ccc(O)cc3oc2=O)cc1 [Compound 24, 7-Hydroxy-3-(4-methoxyphenyl)-coumarin]

SMILES: O=c1oc2cc(O)cc(O)c2cc1-c1ccc(F)cc1 [Compound 31, 5,7-Dihydroxy-3-(4-fluorophenyl)-coumarin]
- IC50 [1]: 595 ± 11.3 µM
- melting point: 267 to 267.6 °C
- IC50 [2]: > 1000 µM
- IC50 (α-Glucosidase): 19.1 ± 0.26 µM

SMILES: Cc1ccc(C)c(-c2cc3ccc(O)c(O)c3oc2=O)c1 [Compound 33, 7,8-Dihydroxy-3-(2,5-dimethylphenyl)-coumarin]
- IC50 [1]: 2.98 ± 0.03 µM
- melting point: 190.3 to 190.5 °C
- IC50 [2]: 903 ± 41.9 µM
- IC50 (α-Glucosidase): > 1000 µM

- IC50 [1]: 1.33 ± 0.03 µM
- IC50 [2]: 244 ± 11.8 µM
- IC50 (AGEs formation): 14.2 ± 1.33 µM
- IC50 (α-Glucosidase; [3]): 247 ± 36.2 µM
SMILES: O=c1oc2c(O)c(O)ccc2cc1-c1ccc(O)c(O)c1 [Compound 36, 7,8-Dihydroxy-3-(3,4-dihydroxyphenyl)-coumarin]

- IC50 [1]: 173 ± 42.6 µM
- IC50 [2]: > 1000 µM
- IC50 (α-Glucosidase; [3]): > 1000 µM
SMILES: COc1ccc(-c2cc3ccc(O)cc3oc2=O)cc1OC [Compound 37, 7-Hydroxy-3-(3,4-dimethoxyphenyl)-coumarin]

SMILES: O=c1oc2ccccc2cc1-c1ccc(Br)cc1 [Compound 40, 3-(4-brominephenyl)-coumarin]
- IC50 [1]: > 1000 µM
- IC50 [2]: > 1000 µM
- IC50 (AGEs formation): 13 ± 0.4 µM
- IC50 (α-Glucosidase; [3]): > 1000 µM

SMILES: O=c1oc2cc(O)ccc2cc1-c1ccc(Br)cc1 [Compound 44, 7-Hydroxy-3-(4-brominephenyl)-coumarin]
- IC50 [1]: > 1000 µM
- IC50 [2]: > 1000 µM
- IC50 (AGEs formation): 7.51 ± 0.38 µM
- IC50 (α-Glucosidase; [3]): > 1000 µM

SMILES: O=c1oc2c(O)cccc2cc1-c1ccc(Br)cc1 [Compound 45, 8-Hydroxy-3-(4-brominephenyl)-coumarin]
- IC50 [1]: 488 ± 95 µM
- IC50 [2]: 596 ± 28.8 µM
- IC50 (AGEs formation): > 1000 µM
- IC50 (α-Glucosidase; [3]): > 1000 µM

SMILES: O=c1oc2cc(O)cc(O)c2cc1-c1ccc(Br)cc1 [Compound 46, 5,7-Dihydroxy-3-(4-brominephenyl)-coumarin]
- IC50 [1]: > 1000 µM
- IC50 [2]: > 1000 µM
- IC50 (AGEs formation): 47.75 ± 0.15 µM
- IC50 (α-Glucosidase; [3]): > 1000 µM

SMILES: O=c1oc2c(O)c(O)ccc2cc1-c1ccc(Br)cc1 [Compound 47, 7,8-Dihydroxy-3-(4-brominephenyl)-coumarin]
- IC50 [1]: 2.37 ± 0.06 µM
- IC50 [2]: 688 ± 49.7 µM
- IC50 (AGEs formation): 299 ± 40.1 µM
- IC50 (α-Glucosidase; [3]): 35.7 ± 0.48 µM

SMILES: COc1ccc(Cl)cc1C(=O)NCCc1ccc(S(=O)(=O)NC(=O)NC2CCCCC2)cc1 [Glibenclamide, reference compound]
- Blood glucose concentration (normal mice; 0h): 9.8 ± 1.5 mM
- % Variation of glycemia (normal mice; 1.5h): (−34.58) %
- Blood glucose concentration (normal mice; 1.5h): 6.4 ± 1.4 mM
- % Variation of glycemia (normal mice; 3h): (−41.36) %
- Blood glucose concentration (normal mice; 3h): 5.8 ± 0.8 mM
- % Variation of glycemia (normal mice; 5h): (−49.15) %
- Blood glucose concentration (normal mice; 5h): 5.0 ± 1.4 mM
- % Variation of glycemia (normal mice; 7h): (−56.61) %
- Blood glucose concentration (normal mice; 7h): 4.3 ± 0.6 mM
- % Variation of glycemia (normal mice; 9h): (−58.31) %
- Blood glucose concentration (normal mice; 9h): 4.1 ± 0.7 mM
- Blood glucose concentration (STZ-diabetic mice; 0h): 16.9 ± 4.3 mM
- % Variation of glycemia (STZ-diabetic mice; 1.5h): (−55.28) %
- Blood glucose concentration (STZ-diabetic mice; 1.5h): 7.2 ± 4.0 mM
- % Variation of glycemia (STZ-diabetic mice; 3h): (−57.14) %
- Blood glucose concentration (STZ-diabetic mice; 3h): 6.9 ± 1.6 mM
- % Variation of glycemia (STZ-diabetic mice; 5h): (−55.90) %
- Blood glucose concentration (STZ-diabetic mice; 5h): 6.7 ± 2.5 mM
- % Variation of glycemia (STZ-diabetic mice; 7h): (−59.63) %
- Blood glucose concentration (STZ-diabetic mice; 7h): 6.5 ± 2.2 mM
- % Variation of glycemia (STZ-diabetic mice; 9h): (−70.81) %
- Blood glucose concentration (STZ-diabetic mice; 9h): 4.9 ± 2.5 mM
- time of maximum hypoglycemic effect (STZ-diabetic mice; STZ-induced diabetic mice, 10 mg/kg of bw): 9 h
